# Paper PMC4947906, “Two fatty acyl reductases involved in moth pheromone biosynthesis” (Scientific Reports, 2016)
# Legend:
# SexpgFAR I = target: T1, SexpgFAR I (Spodoptera exigua, UniProt A0A0F6NS86); test: yeast expression, fatty alcohol by GC-MS; format: cell-based; conditions: fed as methyl ester 0.5 mM, 48 h, 30 °C, the acyl-CoA itself was not added
# T1 construct: gene pgFARI; pYES2.1/V5-His TOPO in S. cerevisiae INVSc1
# T1 sequence (A0A0F6NS86 1-459): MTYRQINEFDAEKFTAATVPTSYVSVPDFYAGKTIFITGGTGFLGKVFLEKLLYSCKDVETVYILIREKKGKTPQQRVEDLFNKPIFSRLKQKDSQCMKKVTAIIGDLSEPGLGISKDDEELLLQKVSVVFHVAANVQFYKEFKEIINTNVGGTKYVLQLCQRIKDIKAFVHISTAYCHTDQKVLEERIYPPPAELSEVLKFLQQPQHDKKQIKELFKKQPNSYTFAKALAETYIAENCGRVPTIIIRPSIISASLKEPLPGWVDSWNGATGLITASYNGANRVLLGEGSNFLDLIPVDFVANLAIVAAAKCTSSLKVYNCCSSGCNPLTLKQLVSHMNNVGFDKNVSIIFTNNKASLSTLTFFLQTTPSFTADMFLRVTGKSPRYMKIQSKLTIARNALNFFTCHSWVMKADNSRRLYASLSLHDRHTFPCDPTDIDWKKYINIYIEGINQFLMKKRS
# SexpgFAR II = target: T2, SexpgFAR II (Spodoptera exigua, UniProt A0A0P0IV71); test: yeast expression, fatty alcohol by GC-MS; format: cell-based; conditions: fed as methyl ester 0.5 mM, 48 h, 30 °C; the acyl-CoA itself was not added
# T2 construct: gene pgFARII; pYES2.1/V5-His TOPO in S. cerevisiae INVSc1
# T2 sequence (A0A0P0IV71 1-454): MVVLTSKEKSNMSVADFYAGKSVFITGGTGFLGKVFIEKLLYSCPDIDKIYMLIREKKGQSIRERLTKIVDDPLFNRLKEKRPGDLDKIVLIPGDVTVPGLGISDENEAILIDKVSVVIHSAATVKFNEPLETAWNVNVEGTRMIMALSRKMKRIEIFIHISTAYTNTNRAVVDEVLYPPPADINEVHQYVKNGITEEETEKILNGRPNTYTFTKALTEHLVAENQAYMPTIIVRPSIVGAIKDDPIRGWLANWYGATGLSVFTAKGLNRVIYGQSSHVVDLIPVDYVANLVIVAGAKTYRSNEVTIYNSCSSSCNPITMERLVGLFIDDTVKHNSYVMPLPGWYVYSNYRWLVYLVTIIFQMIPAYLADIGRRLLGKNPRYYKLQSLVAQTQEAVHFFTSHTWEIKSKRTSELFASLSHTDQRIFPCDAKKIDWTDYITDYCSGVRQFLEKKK
SMILES,"yeast expression, fatty alcohol by GC-MS (SexpgFAR II)",further results
CCCCCCCCCCCCCCCC(=O)SCCNC(=O)CCNC(=O)[C@H](O)C(C)(C)COP(=O)(O)OP(=O)(O)OC[C@H]1O[C@@H](n2cnc3c(N)ncnc32)[C@H](O)[C@@H]1OP(=O)(O)O [C16:Acyl],,"yeast expression, fatty alcohol by GC-MS (SexpgFAR I; also endogenous C16 acyl of yeast): SexpgFAR I-transformed yeast cells produced a significantly higher quantity of C16 fatty alcohol"
CCCC/C=C\CCCCCCCCCC(=O)OC [Z11-16:acyl],,"yeast expression, fatty alcohol by GC-MS (SexpgFAR I): SexpgFAR I produced significantly more Z11-16:OH than SexpgFAR II"
CCCC/C=C\CCCCCCCC(=O)OC [Z9-14:acyl],SexpgFAR II exhibits specificity for Z9-14:acid and Z9E12-14:acid precursors,
C/C=C/C/C=C\CCCCCCCC(=O)OC [Z9E12-14:acyl],SexpgFAR II exhibits specificity for Z9-14:acid and Z9E12-14:acid precursors,
